In assay [1] the test system is Utrophin. Nature of the assay: Utrophin upregulation (mRNA fold change, RT-PCR) in differentiated C2C12 myoblast cells. In kind it is cell-based, mouse. Conditions: 24 hours; for fold change of utrophin: C2C12 myoblast cells differentiated seven days, 10 μM, FIG. 1. The protocol:
C2C12 myoblast cells are seeded in the well plate with a growth medium (10% FBS and DMEM). After they reached 70% confluence, the cells are added to the differentiation medium (2% HS and DMEM) and differentiated for seven days. Stock solutions are prepared for Sitagliptin and other DPP-IV inhibitors viz., Melogliptin, Linagliptin, Vildagliptin, and Teneligliptin in DMSO. The cells are treated with a final concentration of 10 μM stock solution for 24 hours. RNA isolation is carried out using the Qiagen assay kit and quantified using NanodropRT-PCR for Utrophin Upregulation.
Using the same protocol for Example 1, C2C 12 myoblast cells are treated with sitagliptin for 24 hours. Ezutromid is a known utrophin up-regulator and used as a positive control. RNA isolation and RT-PCR are done to quantify the fold change in utrophin mRNA expression. FIG. 2 presents the fold change in mRNA expression of Utrophin on C2C12 mouse skeletal muscle myoblasts at 10 uM sitagliptin compared to 10 uM Ezutromid.

In assay [2] the test system is D2.mdx mice. Nature of the assay: Hanging test in D2.mdx mice. In kind it is in vivo, mouse. To be noted: 50 mg/kg p.o. q.d., irrespective of treadmill stress, compared with wild type mice, FIGS. 6A and 6B. The protocol: (§1) All the functional experimental parameters are evaluated in mdx background wild-type mice and in D2.mdx mice (D2.B10-DMD mdx/J mice procured from Jackson laboratories (Strain #013141), Bar Harbor, Maine (ME), USA 04609. The test item, Sitagliptin 50 mg/kg, is orally (p.o.) administered once daily (q.d.) at a dose volume of 10 mL/kg. Sitagliptin suspended in formulation containing 0.1% Tween 20 and 0.5% Carboxymethyl cellulose (CMC) is administered once daily for 28 days via the oral route. The wild-type control and mdx control groups received the vehicle (0.5% Carboxy methyl cellulose (CMC) containing 0.1% Tween 20) alone. Body weight of the study animals is recorded before the study (pre-dose) and twice weekly/daily throughout the study. Animals are also monitored for clinical signs, mortality, and morbidity. […] Muscle function is assessed through grip strength test using a Grip strength meter (Orchid Scientific, Model No.: […], India), hanging test, treadmill running, and rotarod test (Orchid Scientific, India) in response to Vehicle and Sitagliptin (50 mg/kg, p.o.) treatments. […] The efficacy of Sitagliptin is evaluated by comparing the functional test parameters and serum CK levels of the treated group with that of the mdx-control group in comparison to the basal value of Wild-type group. […]

Assay [3] concerns D2.mdx mice. Nature of the assay: Grip strength test in D2.mdx mice. In kind it is in vivo, mouse. Conditions: 50 mg/kg p.o. q.d., before treadmill stress, compared with wild type mice, FIG. 5A. The protocol: as §1
For assay [4], the system named is D2.mdx mice. Nature of the assay: Rotarod test in D2.mdx mice. Conditions: 50 mg/kg p.o. q.d., 28 days, FIG. 7. In kind it is in vivo, mouse. The procedure:
as §1

Assay [5] has as its system D2.mdx mice. Put plainly: 28th day summary of functional tests in D2.mdx mouse models. In kind it is in vivo. Conditions: 50 mg/kg p.o. q.d., day 28, vs DMD disease control mice, FIG. 9A-9F. The procedure:
as §1

Assay [6] deals with D2.mdx mice. Put plainly: Treadmill test in D2.mdx mice. In kind it is in vivo, mouse. To be noted: 50 mg/kg p.o. q.d., 28 days, vs DMD-Control. The protocol: as §1
The test system of assay [7] is D2.mdx mice. Nature of the assay: Serum Creatinine Kinase level in D2.mdx mice after treadmill test. In kind it is in vivo, mouse. Conditions: 50 mg/kg p.o. q.d., 28 days, measured within 30 minutes after treadmill test, FIG. 8.
Protocol: All the functional experimental parameters are evaluated in mdx background wild-type mice and in D2.mdx mice (D2.B10-DMD mdx/J mice procured from Jackson laboratories (Strain #013141), Bar Harbor, Maine (ME), USA 04609. The test item, Sitagliptin 50 mg/kg, is orally (p.o.) administered once daily (q.d.) at a dose volume of 10 mL/kg. Sitagliptin suspended in formulation containing 0.1% Tween 20 and 0.5% Carboxymethyl cellulose (CMC) is administered once daily for 28 days via the oral route. The wild-type control and mdx control groups received the vehicle (0.5% Carboxy methyl cellulose (CMC) containing 0.1% Tween 20) alone. […] All three group mice (Wild-type, DMD-Control & DMD-Sitagliptin) underwent functional tests at week 0 (Basal-Day 0), week 2 (Day 14) and at the end of the study (week 4 or Day 28). […] Blood samples are collected for Creatine kinase (CK) analysis 30 min after Treadmill functional test on Day 0, 14 & Day 28. The efficacy of Sitagliptin is evaluated by comparing the functional test parameters and serum CK levels of the treated group with that of the mdx-control group in comparison to the basal value of Wild-type group. […] Treadmill, grip strength, hanging, rotarod, and creatine kinase tests are recorded on day 0, day 14 and day 28. […] Serum Creatinine Kinase level is measured within 30 minutes after the mice are subjected to Treadmill tests.

The structures appear in SMILES notation.

Regarding `Cc1cc(N2CCN([C@@H]3CN[C@H](C(=O)N4CCSC4)C3)CC2)n(-c2ccccc2)n1` [Teneligliptin, {(2S,4S)-4-[4-(3-Methyl-1-phenyl-1H-pyrazol-5-yl)-1-piperazinyl]-2-pyrrolidinyl}(1,3-thiazolidin-3-yl)methanone], the “fold change of utrophin” value in assay [1] is given as “capable of upregulating utrophin levels”.
As for `CC#CCn1c(N2CCC[C@@H](N)C2)nc2c1c(=O)n(Cc1nc(C)c3ccccc3n1)c(=O)n2C` [Linagliptin, 8-[(3R)-3-Aminopiperidin-1-yl]-7-(but-2-yn-1-yl)-3-methyl-1-[(4-methylquinazolin-2-yl)methyl]-3,7-dihydro-1H-purine-2,6-dione], the “fold change of utrophin” value in assay [1] is given as “capable of upregulating utrophin levels”.
On to `N[C@@H](CC(=O)N1CCn2c(nnc2C(F)(F)F)C1)Cc1cc(F)c(F)cc1F` [Sitagliptin, (R)-4-oxo-4-[3-(trifluoromethyl)-5,6-dihydro[1,2,4]triazolo[4,3-a]pyrazin-7(8H)-yl]-1-(2,4,5-trifluorophenyl)butan-2-amine], for which the “fold change in mRNA expression of Utrophin compared to Ezutromid” value in assay [1] (C2C12 mouse skeletal muscle myoblasts, 10 uM sitagliptin vs 10 uM Ezutromid (positive control), FIG. 2) was “superior upregulation of utrophin compared Ezutromid”. In assay [1], the “fold change of utrophin” value is “capable of upregulating utrophin levels”. Besides, in assay [2], the “hanging latency pre- and post-treadmill” value is “perform comparably with wild type mice”. For the same compound, in assay [3], the “normalized grip strength pre-treadmill” value is recorded as “could grip as well as the wild type mice”. Moreover, the “latency to fall (rotarod)” value in assay [4] is on record as “sustained improvements in overall muscle coordination”. Moreover, the “all functional parameters (distance travelled, time to exhaust, grip strength, hanging test), 28th day summary” value in assay [5] is on record as “robust improvement in all the functional parameters”. For the same compound, in assay [6] (FIG. 4A), the “distance travelled in 30 mins (treadmill)” value was “significant and sustained improvement”. In assay [6] (FIG. 4B), the “time to exhaust (treadmill)” value is “significant and sustained improvement”. Besides, the “Serum Creatinine Kinase levels” value in assay [7] is reported as “significant reductions”.
For `N#C[C@@H]1C[C@H](F)CN1C(=O)CN[C@@H]1CC[C@H](Cn2cncn2)C1` [Melogliptin, (2S,4S)-4-fluoro-1-[2-[[(1R,3S)-3-(1,2,4-triazol-1-ylmethyl)cyclopentyl]amino]acetyl]pyrrolidine-2 carbonitrile], the “fold change of utrophin” value in assay [1] is on record as “capable of upregulating utrophin levels”.
On the same count and under the same terms, the value for `N#C[C@@H]1CCCN1C(=O)CNC12CC3CC(CC(O)(C3)C1)C2` [Vildagliptin, (S)-1-[2-(3-Hydroxyadamantan-1-ylamino)acetyl]pyrrolidine-2-carbonitrile] was “capable of upregulating utrophin levels”.

Values taken from patent US20260284043A1, “COMPOUNDS FOR UPREGULATING UTROPHIN LEVELS IN MUSCLE CELLS AND METHOD OF APPLICATION THEREOF” (Peptris Technologies Private Limited, priority 2023, published 2026).
